Measurements: PMC11254100 (Angewandte Chemie (International ed. in English), 2024)

System: anti-HA mAb clone 12ca5
Format: binding

## cyclo(GDAGPYDADYA)
  enrichment in affinity selection: enriched

## cyclo(GDVGPDAYDYA)
  enrichment in affinity selection: enriched

## cyclo(GDVWALYASYA)
  enrichment in affinity selection: not enriched in the selection
